Assay results reported in the kinase profiling compilation of Christmann-Franck et al. (2016).

Assays:
Assay in all cases: radiometric filter-binding kinase assay
[1] = test system: AKT2 (human), P31751 [S474D]
[2] = target: IKBKE (human) (UniProt Q14164)
[3] = target: PKN2 (human) (UniProt Q16513)
[4] = target: PIM2 (human) (UniProt Q9P1W9)
[5] = target: MAPK14 (human) (UniProt Q16539)
[6] = target: MAPK12 (human) (UniProt P53778)
[7] = target: EPHA4 (human) (UniProt P54764)
[8] = target: PAK6 (human) (UniProt Q9NQU5)
PAK6 (human), sequence (Q9NQU5 whole entry, looked up): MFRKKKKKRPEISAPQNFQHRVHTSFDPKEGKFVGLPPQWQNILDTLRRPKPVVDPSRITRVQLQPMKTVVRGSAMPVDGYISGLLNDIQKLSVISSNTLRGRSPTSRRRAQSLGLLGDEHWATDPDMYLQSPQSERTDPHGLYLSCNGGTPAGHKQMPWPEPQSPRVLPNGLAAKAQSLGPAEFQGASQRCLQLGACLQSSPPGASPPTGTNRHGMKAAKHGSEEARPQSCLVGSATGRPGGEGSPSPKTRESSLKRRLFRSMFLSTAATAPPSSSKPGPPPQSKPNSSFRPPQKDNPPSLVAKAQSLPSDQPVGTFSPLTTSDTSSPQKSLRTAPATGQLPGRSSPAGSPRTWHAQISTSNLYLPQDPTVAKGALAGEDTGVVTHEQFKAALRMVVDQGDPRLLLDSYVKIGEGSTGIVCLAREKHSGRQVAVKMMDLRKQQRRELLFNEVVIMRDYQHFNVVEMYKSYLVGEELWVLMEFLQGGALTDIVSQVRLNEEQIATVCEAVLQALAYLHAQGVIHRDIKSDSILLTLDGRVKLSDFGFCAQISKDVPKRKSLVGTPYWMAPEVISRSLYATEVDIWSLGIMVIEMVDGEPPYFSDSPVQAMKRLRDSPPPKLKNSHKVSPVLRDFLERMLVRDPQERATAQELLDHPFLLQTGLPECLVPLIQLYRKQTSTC

[9] = target: MAP3K7 TAB1 (human) (UniProt Q15750+O43318)
[10] = target: PIM3 (human) (UniProt Q86V86)
[11] = target: MAPK3 (human) (UniProt P27361)
[12] = target: RPS6KA5 KD1 KD2 (human) (UniProt O75582)
[13] = target: MARK2 (human) (UniProt Q7KZI7)
[14] = target: PLK1 (human) (UniProt P53350)
[15] = target: NEK2 (human) (UniProt P51955)
[16] = target: PAK7 (human) (UniProt Q9P286)
PAK7 (human), sequence (Q9P286 whole entry, looked up): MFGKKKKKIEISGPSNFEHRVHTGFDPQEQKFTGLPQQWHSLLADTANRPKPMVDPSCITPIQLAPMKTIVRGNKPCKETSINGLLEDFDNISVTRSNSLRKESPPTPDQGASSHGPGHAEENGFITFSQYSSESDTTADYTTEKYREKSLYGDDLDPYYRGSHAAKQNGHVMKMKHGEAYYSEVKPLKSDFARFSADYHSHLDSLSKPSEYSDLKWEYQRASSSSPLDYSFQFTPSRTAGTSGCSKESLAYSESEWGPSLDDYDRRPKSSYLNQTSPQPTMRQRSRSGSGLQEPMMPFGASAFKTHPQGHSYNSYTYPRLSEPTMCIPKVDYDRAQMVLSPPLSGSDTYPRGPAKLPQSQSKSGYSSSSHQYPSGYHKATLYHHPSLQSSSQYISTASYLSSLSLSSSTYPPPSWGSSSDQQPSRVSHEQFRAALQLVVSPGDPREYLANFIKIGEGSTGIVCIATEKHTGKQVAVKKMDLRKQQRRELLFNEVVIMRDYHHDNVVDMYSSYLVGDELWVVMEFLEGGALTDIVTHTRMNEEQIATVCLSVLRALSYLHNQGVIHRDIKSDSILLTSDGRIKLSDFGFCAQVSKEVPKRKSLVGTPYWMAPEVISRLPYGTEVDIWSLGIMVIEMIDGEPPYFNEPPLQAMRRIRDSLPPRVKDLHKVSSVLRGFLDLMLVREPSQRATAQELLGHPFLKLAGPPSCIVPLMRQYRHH

[17] = target: RIPK2 (human) (UniProt O43353)
[18] = target: MST4 (human) (UniProt Q9P289)
[19] = target: IRAK4 (human) (UniProt Q9NWZ3); settings: compound 0.1 µM
[20] = test system: PAK2 (human), Q13177 [T402E]
[21] = target: CAMKK2 (human) (UniProt Q96RR4)
[22] = target: SRPK1 (human) (UniProt Q96SB4)
[23] = target: IGF1R (human) (UniProt P08069)
[24] = target: HIPK3 (human) (UniProt Q9H422)
HIPK3 (human), sequence (Q9H422 whole entry, looked up): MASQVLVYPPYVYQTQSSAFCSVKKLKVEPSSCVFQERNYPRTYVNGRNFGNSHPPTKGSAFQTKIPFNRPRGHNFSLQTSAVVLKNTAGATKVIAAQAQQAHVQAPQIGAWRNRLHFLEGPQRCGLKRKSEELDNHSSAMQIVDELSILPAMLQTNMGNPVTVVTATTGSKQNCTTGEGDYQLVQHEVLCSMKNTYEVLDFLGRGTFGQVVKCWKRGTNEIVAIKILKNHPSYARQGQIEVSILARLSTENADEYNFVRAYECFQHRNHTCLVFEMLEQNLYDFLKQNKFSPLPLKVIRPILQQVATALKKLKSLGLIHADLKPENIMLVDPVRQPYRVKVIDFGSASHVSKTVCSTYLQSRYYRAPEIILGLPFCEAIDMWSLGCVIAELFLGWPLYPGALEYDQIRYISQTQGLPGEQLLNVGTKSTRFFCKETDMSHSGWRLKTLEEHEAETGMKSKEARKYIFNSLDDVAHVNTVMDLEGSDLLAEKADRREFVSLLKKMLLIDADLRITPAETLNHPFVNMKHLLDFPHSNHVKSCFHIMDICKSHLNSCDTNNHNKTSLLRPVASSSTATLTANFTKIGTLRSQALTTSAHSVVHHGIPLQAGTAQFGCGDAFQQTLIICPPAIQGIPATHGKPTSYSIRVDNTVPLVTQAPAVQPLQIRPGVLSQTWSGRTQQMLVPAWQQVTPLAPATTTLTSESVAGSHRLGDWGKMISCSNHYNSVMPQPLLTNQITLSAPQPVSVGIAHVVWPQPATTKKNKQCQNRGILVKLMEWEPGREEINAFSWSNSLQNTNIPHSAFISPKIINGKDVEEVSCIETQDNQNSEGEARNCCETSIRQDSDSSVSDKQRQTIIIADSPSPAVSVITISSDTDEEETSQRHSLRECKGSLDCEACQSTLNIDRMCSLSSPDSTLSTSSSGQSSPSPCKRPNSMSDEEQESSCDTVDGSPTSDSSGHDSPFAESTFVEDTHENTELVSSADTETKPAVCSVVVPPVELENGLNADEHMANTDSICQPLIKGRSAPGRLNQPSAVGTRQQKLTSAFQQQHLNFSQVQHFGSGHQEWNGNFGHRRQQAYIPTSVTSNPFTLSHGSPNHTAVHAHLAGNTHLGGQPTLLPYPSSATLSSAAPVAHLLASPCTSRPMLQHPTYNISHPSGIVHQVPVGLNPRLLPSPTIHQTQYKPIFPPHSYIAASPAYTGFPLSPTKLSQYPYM

[25] = target: MAPKAPK2 (human) (UniProt P49137)
[26] = target: NEK6 (human) (UniProt Q9HC98)
NEK6 (human), sequence (Q9HC98 whole entry, looked up): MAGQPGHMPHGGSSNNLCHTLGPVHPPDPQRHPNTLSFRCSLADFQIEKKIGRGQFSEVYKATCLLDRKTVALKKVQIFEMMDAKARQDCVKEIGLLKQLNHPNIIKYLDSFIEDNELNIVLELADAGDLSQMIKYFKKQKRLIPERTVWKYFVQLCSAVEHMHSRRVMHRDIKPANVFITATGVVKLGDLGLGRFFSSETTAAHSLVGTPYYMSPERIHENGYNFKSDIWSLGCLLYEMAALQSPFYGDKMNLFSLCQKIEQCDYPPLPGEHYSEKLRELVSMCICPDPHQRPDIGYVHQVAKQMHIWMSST

[27] = target: PAK4 (human) (UniProt O96013)
PAK4 (human), sequence (O96013 whole entry, looked up): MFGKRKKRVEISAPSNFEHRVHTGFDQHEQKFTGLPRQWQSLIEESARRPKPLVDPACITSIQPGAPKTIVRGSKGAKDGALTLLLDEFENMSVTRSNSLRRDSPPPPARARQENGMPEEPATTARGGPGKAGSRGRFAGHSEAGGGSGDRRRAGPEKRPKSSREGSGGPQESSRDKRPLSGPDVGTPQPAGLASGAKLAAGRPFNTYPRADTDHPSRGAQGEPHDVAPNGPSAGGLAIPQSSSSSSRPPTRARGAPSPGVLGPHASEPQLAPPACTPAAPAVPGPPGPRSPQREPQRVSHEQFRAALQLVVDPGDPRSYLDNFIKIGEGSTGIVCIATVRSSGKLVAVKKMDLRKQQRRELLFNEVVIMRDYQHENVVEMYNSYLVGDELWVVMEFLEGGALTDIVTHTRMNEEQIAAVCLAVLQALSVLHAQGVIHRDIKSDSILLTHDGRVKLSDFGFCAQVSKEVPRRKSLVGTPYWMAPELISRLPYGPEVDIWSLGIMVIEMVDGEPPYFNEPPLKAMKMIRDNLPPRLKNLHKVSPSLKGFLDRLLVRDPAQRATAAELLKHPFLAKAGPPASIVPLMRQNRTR

[28] = target: CHEK1 (human) (UniProt O14757)
[29] = target: DYRK1A (human) (UniProt Q13627)
[30] = target: MARK1 (human) (UniProt Q9P0L2); settings: compound 10.0 µM
[31] = target: RPS6KA3 KD1 KD2 (human) (UniProt P51812)
[32] = test system: SGK1 (human), O00141 [S422D]
SGK1 (human), O00141 [S422D], sequence (O00141 whole entry S422D, looked up): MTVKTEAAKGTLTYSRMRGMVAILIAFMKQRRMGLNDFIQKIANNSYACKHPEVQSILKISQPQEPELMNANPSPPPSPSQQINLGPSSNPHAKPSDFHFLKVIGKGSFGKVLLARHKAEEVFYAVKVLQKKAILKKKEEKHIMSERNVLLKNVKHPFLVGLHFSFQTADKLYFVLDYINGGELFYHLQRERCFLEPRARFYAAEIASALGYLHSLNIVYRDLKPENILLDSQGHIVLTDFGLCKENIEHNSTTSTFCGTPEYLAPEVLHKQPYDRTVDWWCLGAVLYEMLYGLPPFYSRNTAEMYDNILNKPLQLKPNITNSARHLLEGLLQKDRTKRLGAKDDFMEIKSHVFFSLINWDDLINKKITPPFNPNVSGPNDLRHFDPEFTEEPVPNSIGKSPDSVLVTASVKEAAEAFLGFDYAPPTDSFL

[33] = target: CLK2 (human) (UniProt P49760)
[34] = target: CSNK1D (human) (UniProt P48730)
[35] = target: MAPK15 (human) (UniProt Q8TD08)
MAPK15 (human), sequence (Q8TD08 whole entry, looked up): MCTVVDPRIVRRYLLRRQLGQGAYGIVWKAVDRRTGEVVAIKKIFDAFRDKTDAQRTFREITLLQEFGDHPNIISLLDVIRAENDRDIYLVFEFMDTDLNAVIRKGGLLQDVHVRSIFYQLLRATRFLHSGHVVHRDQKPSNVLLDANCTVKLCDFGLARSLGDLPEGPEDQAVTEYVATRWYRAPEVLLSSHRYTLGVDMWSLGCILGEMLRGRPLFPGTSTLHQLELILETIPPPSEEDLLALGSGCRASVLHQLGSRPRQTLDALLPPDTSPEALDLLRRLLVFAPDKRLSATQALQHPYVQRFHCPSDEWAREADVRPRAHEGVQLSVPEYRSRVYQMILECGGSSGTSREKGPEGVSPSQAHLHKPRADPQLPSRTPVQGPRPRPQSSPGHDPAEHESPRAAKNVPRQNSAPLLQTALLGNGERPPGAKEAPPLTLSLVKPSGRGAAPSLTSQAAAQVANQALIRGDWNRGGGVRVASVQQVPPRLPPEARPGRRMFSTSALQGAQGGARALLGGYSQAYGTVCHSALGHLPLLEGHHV

AKT2 (human), P31751 [S474D], sequence (P31751 whole entry S474D, looked up): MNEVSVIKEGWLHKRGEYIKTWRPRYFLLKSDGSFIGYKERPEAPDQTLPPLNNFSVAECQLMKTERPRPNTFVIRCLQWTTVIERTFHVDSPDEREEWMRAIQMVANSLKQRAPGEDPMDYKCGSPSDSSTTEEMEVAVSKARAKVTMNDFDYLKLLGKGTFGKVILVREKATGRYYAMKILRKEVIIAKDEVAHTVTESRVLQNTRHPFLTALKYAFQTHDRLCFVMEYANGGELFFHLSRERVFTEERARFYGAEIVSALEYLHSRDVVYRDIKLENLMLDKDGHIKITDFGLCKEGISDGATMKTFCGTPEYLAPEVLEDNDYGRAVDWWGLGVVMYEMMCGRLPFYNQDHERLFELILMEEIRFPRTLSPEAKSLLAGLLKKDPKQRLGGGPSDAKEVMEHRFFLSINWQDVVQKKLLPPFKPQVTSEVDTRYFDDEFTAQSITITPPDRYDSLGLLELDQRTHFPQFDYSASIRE

O=C(N[C@@H](COc1ccc2[nH]c(=O)[nH]c2c1)c1ccccc1)c1cccn(Cc2ccc(F)c(F)c2)c1=O
residual activity ([1]; compound 0.1 µM): 98%
residual activity ([1]; compound 1.0 µM): 96%
residual activity ([1]; compound 10.0 µM): 77%
residual activity ([2]; compound 0.1 µM): 103%
residual activity ([2]; compound 1.0 µM): 109%
residual activity ([2]; compound 10.0 µM): 95%
residual activity ([3]; compound 0.1 µM): 108%
residual activity ([3]; compound 1.0 µM): 113%
residual activity ([3]; compound 10.0 µM): 103%
residual activity ([4]; compound 0.1 µM): 107%
residual activity ([4]; compound 1.0 µM): 105%
residual activity ([4]; compound 10.0 µM): 85%
residual activity ([5]; compound 0.1 µM): 114%
residual activity ([5]; compound 1.0 µM): 121%
residual activity ([5]; compound 10.0 µM): 114%
residual activity ([6]; compound 0.1 µM): 98%
residual activity ([6]; compound 1.0 µM): 110%
residual activity ([6]; compound 10.0 µM): 105%
residual activity ([7]; compound 0.1 µM): 95%
residual activity ([7]; compound 1.0 µM): 113%
residual activity ([7]; compound 10.0 µM): 107%
residual activity ([8]; compound 0.1 µM): 102%
residual activity ([8]; compound 1.0 µM): 102%
residual activity ([8]; compound 10.0 µM): 89%
residual activity ([9]; compound 0.1 µM): 97%
residual activity ([9]; compound 1.0 µM): 103%
residual activity ([9]; compound 10.0 µM): 54%
residual activity ([10]; compound 0.1 µM): 103%
residual activity ([10]; compound 1.0 µM): 108%
residual activity ([10]; compound 10.0 µM): 95%
residual activity ([11]; compound 0.1 µM): 93%
residual activity ([11]; compound 1.0 µM): 101%
residual activity ([11]; compound 10.0 µM): 95%
residual activity ([12]; compound 0.1 µM): 101%
residual activity ([12]; compound 1.0 µM): 104%
residual activity ([12]; compound 10.0 µM): 106%
residual activity ([13]; compound 0.1 µM): 105%
residual activity ([13]; compound 1.0 µM): 102%
residual activity ([13]; compound 10.0 µM): 88%
residual activity ([14]; compound 0.1 µM): 118%
residual activity ([14]; compound 1.0 µM): 107%
residual activity ([14]; compound 10.0 µM): 121%
residual activity ([15]; compound 0.1 µM): 107%
residual activity ([15]; compound 1.0 µM): 97%
residual activity ([15]; compound 10.0 µM): 96%
residual activity ([16]; compound 0.1 µM): 104%
residual activity ([16]; compound 1.0 µM): 92%
residual activity ([16]; compound 10.0 µM): 64%
residual activity ([17]; compound 0.1 µM): 102%
residual activity ([17]; compound 1.0 µM): 105%
residual activity ([17]; compound 10.0 µM): 98%
residual activity ([18]; compound 0.1 µM): 101%
residual activity ([18]; compound 1.0 µM): 117%
residual activity ([18]; compound 10.0 µM): 86%
residual activity [19]: 110%
residual activity ([20]; compound 0.1 µM): 113%
residual activity ([20]; compound 1.0 µM): 109%
residual activity ([20]; compound 10.0 µM): 79%
residual activity ([21]; compound 1.0 µM): 104%
residual activity ([21]; compound 10.0 µM): 90%
residual activity ([22]; compound 0.1 µM): 107%
residual activity ([22]; compound 1.0 µM): 114%
residual activity ([22]; compound 10.0 µM): 101%
residual activity ([23]; compound 0.1 µM): 105%
residual activity ([23]; compound 1.0 µM): 105%
residual activity ([23]; compound 10.0 µM): 103%
residual activity ([24]; compound 0.1 µM): 99%
residual activity ([24]; compound 1.0 µM): 108%
residual activity ([24]; compound 10.0 µM): 91%
residual activity ([25]; compound 0.1 µM): 99%
residual activity ([25]; compound 1.0 µM): 101%
residual activity ([25]; compound 10.0 µM): 90%
residual activity ([26]; compound 0.1 µM): 104%
residual activity ([26]; compound 1.0 µM): 100%
residual activity ([26]; compound 10.0 µM): 98%
residual activity ([27]; compound 0.1 µM): 102%
residual activity ([27]; compound 1.0 µM): 101%
residual activity ([27]; compound 10.0 µM): 67%
residual activity ([28]; compound 0.1 µM): 96%
residual activity ([28]; compound 1.0 µM): 94%
residual activity ([28]; compound 10.0 µM): 95%
residual activity ([29]; compound 0.1 µM): 113%
residual activity ([29]; compound 1.0 µM): 97%
residual activity ([29]; compound 10.0 µM): 79%
residual activity [30]: 107%
residual activity ([31]; compound 0.1 µM): 102%
residual activity ([31]; compound 1.0 µM): 98%
residual activity ([31]; compound 10.0 µM): 85%
residual activity ([32]; compound 0.1 µM): 106%
residual activity ([32]; compound 1.0 µM): 102%
residual activity ([32]; compound 10.0 µM): 102%
residual activity ([33]; compound 0.1 µM): 106%
residual activity ([33]; compound 1.0 µM): 95%
residual activity ([33]; compound 10.0 µM): 74%
residual activity ([34]; compound 0.1 µM): 103%
residual activity ([34]; compound 1.0 µM): 110%
residual activity ([34]; compound 10.0 µM): 113%
residual activity ([35]; compound 0.1 µM): 92%
residual activity ([35]; compound 1.0 µM): 89%
residual activity ([35]; compound 10.0 µM): 94%
